Assay results from patent US20140301961A1, “COMPOUNDS WITH ANTI-AGING ACTIVITIES” (priority 2011, published 2014).
Entries after “also recorded” stand apart in the source; their conditions may differ.

Experiments:
[1] = tested on: tachykinin, precursor 1 (TAC1); assay: Affymetrix gene array on skin explants, TAC1; format: cell-based, human; conditions: topical, 24 hours
Description: (§1) Subcutaneous fat from full thickness skin, obtained from surgical waste material from breast reduction procedures, was removed with a scalpel. Three healthy Caucasian female donors were used for this study. The female donors differed from those of the skin-treatment study outlined previously 8 mm punch biopsies were taken from the skin (and these biopsies are now referred to as skin explants). Skin explants were put on Milipore cell culture inserts (12 mm diameter). Inserts containing skin explants were put in 6-well plates (one insert/well) and 1 mL of supplemented keratinocyte medium (ex Cascade Biologics) was added to each well. A tretinoin-containing cream (Aberela® ex. Janssen): 0.05% tretinoin in the cream, was applied topically to each explant (5 μL/cm^2) using a positive displacement pipette. A placebo cream without tretinoin was used as a control. The skin explants were incubated with tretinoin for 24 hours at 37° C. in 5% CO2-humidified air.
(§2) RNA concentration was measured with ND-1000 spectrophotometer (ex. NanoDrop Technologies) and RNA quality was evaluated using the Agilent 2100 bioanalyzer system (ex. Agilent Technologies). 250 nanograms of total RNA from each skin or skin explant sample was used to prepare biotinylated fragmented cRNA according to the GeneChip® 3′IVT Express Kit Manual (PN702646 Rev 1, ex. Affymetrix Inc.). Affymetrix GeneChip® expression arrays (Human Genome U133 Plus 2.0) were hybridized for 16 hours in a 45° C. incubator, rotated at 60 rpm. According to the GeneChip Expression Wash, Stain and Scan Manual (PN 702731 Rev 2, ex. Affymetrix Inc.) the arrays were washed and stained using the Fluidics Station 450 and scanned using the GeneChip® Scanner 3000 7G.
(§3) Analysis of the gene expression data was carried out in the statistical computing language R (http://www.r-project.org) using packages available from the Bioconductor project (www.bioconductor.org). The raw data was normalized using the robust multi-array average (RMA) method. In order to search for differentially expressed genes between the X samples and the Y samples group an empirical Bayes moderated t-test was then applied using the ‘limma’ package.
(§4) Skin explants were obtained as detailed in Example 3.1.

[2] = tested on: steroid 5 alpha-reductase 3 (SRD5A3); assay: Affymetrix gene array on skin explants, SRD5A3; format: cell-based, human; conditions: topical, 24 hours
Description: as §1, §2, §3, §4

[3] = tested on: prostaglandin-endoperoxide synthase 1 (PTGS1); assay: Affymetrix gene array on skin explants, PTGS1; format: cell-based, human; conditions: topical, 24 hours
Description: as §1, §2, §3, §4

[4] = tested on: pro-collagen type 1; assay: Pro-collagen 1 ELISA in dermal fibroblasts; format: cell-based, human; conditions: 24 hour stimulation, 3 donors (FIG. 5)
Method: (§5) MMP-inhibitory activity for compounds of the invention was also assessed on human dermal fibroblasts. Dermal fibroblasts were cultured in Dulbecco's Modified Eagle Medium (DMEM) (Invitrogen) with 10% EBS (ex. Invitrogen) and 1% Pencillin/Streptavidin (ex. Invitrogen). To induce inflammation in the cells, PMA (phorbol myristate acetate) (ex. Sigma) was used at a concentration of 10 nM. […] The cells were stimulated for 24 h and the culture supernatant was collected and stored at −20° C. until further analysis.
Fibroblast cells were cultured as outlined in Example 3.1 and treated with compounds of the invention The secretion of pro-collagen in the cell culture supernatants were analyzed using Pro-Collagen 1 specific ELISA (#8003; ex. Quidel). Results were compared with cell culture supernatants from DMSO vehicle treated cells. The assays utilized a 96-well microplate format and were processed according to the manufacturer's protocol, including generation of a standard curve prepared in background assay diluents. Absorbance of the assay dye was read at a Synergy HT plate reader. Values that fell within the linear range of the calibration assay were accepted. Quantities were determined by comparison to standard curve obtained for pro-collagen 1.

[5] = tested on: VEGF; assay: Inflammation induced VEGF synthesis in cultured dermal fibroblasts; format: cell-based, human; conditions: inflammatory inducer PMA (FIG. 10)
Method: as §5
Fluorokine MultiAnalyte Profiling (xMAP) using the BioPlex (ex. Biorad) dual laser flow-based sorting and detection analyzers manufactured by Luminex corporation (Luminex, Austin, Tex.) was employed to measure levels of MMP in conditioned media samples of stimulated dermal fibroblasts. The technology incorporated polystyrene microspheres dyed internally with differing ratios of two spectrally distinct fluorophores to create a family of different spectrally addressed bead sets. The bead utilized in this study was conjugated with a biotinylated capture antibody specific for a unique MMPs, The assay was performed without antecedent serum depletion. Results were compared with medium from cells treated with vehicle only (DMSO). The assays utilized a 96-well microplate format and were processed according to the manufacturer's protocol, including generation of a standard curve for each target prepared in background assay diluents. Values that fell within the linear range of the calibration assay were accepted. Samples were analyzed using the Bio-Plex suspension array system and Bio-Plex Manager software 4.0 (Bio-Rad Laboratories, Hercules, Calif.). Quantities were determined by comparison to standard curves obtained for the different MMP.
Cell culture and cytokine analysis was carried out on human dermal fibroblasts as described in Example 3.1. The methodology was adapted in order analyze VEGF production.

[6] = tested on: Fibroblast growth factor (FGF); assay: FGF production in human skin explants; format: cell-based; conditions: topical (FIG. 13)
Method: Full thickness skin from surgical waste material from breast reductions was collected. Subcutaneous fat was removed with a scalpel. 8 mm punch biopsies was taken from the skin and referred to as skin explants. Thereafter, the explants were put on Millipore cell culture inserts (12 mm in diameter). Inserts containing skin explants were put in 6-well plate (1 insert/well) and 1 mL of supplemented keratinocyte medium (Cascade Biologics) was added to each well to allow survival and nutrition of the explants. […] Supernatants were thereafter collected and analyzed for GM-CSF production.
Human Skin Explants were Obtained and Treated as Described in Example 7.3.
The methodology described in Example 3.1 was adapted in order analyze FGF production in skin explants.

[7] = tested on: interleukin-6 [IL-6]; assay: Interleukin-6 production in PMA-stimulated dermal fibroblasts; format: cell-based, human; conditions: PMA 10 nM (FIG. 7)
Method: Human dermal fibroblast cell cultures were prepared according to Example 3.1. To induce inflammation in the cells PMA (phorbol myristate acetate) (ex. Sigma) was used at a concentration of 10 nM. […] The cells were stimulated for 24 h and the culture supernatant was collected and stored at −20° C. until further analysis
Experimental method as outlined in Example 3.1 was modified in order to analyze IL-6 levels extracted from dermal fibroblasts stimulated for 6 days with all-trans retinoic acid, retinol, arachidonic acid, β-aescin, and […] (ethyl ester) at a range of concentrations. Experiments were performed in duplicates.

Structure (SMILES) | TAC1 gene expression [1] [log 2−ratio] | SRD5A3 gene expression [2] [log 2−ratio] | PTGS1 gene expression [3] [log 2−ratio] | production of pro-collagen type 1 [4] | inflammatory induced VEGF synthesis [5] | FGF production [6] | interleukin-6 production [7] | FGF production ([6]; listed as naringenin)
CC(=O)N[C@@H](CC(=O)O)C(=O)O [N-Acetyl aspartic acid, (2S)-2-Acetamidobutanedioic acid] | −1.23 | −1.54 | −0.20 | significantly increase | reduce inflammatory induced VEGF synthesis | higher FGF production than retinoic acid; also recorded: Stimulation of FGF production | inhibit interleukin-6 production | 
O=C1C[C@@H](c2ccc(O)cc2)Oc2cc(O)cc(O)c21 [Naringenin, (S)-2,3-Dihydro-5,7-dihydroxy-2-(4-hydroxyphenyl)-4H-1-benzopyran-4-one] | −2.78 | 1.25 | −3.51 | convincing trend towards increasing | reduce inflammatory induced VEGF synthesis | higher FGF production than retinoic acid | inhibit interleukin-6 production | Stimulation of FGF production
C=C1C[C@]23C[C@@]1(O)CC[C@H]2[C@@]12C=C[C@H](O)[C@@](C)(C(=O)O1)[C@@H]2[C@@H]3C(=O)O [Gibberellic acid, (3S,3aS,4S,4aS,7S,9aR,9bR,12S)-7,12-dihydroxy-3-methyl-6-methylene-2-oxoperhydro-4a,7-methano-9b,3-propenoazuleno[1,2-b]furan-4-carboxylic acid] | −0.62 | −0.75 | −1.11 | significantly increase | reduce inflammatory induced VEGF synthesis | higher FGF production than retinoic acid; also recorded: Stimulation of FGF production | inhibit interleukin-6 production | 
